Data taken from ChEMBL document CHEMBL2062499, “Synthesis of benzofuran based 1,3,5-substituted pyrazole derivatives: as a new class of potent antioxidants and antimicrobials--a novel accost to amend biocompatibility” (Bioorg Med Chem Lett, 2012).

What was measured:
[1] = test system: Pseudomonas aeruginosa; assay: Antibacterial activity Pseudomonas aeruginosa ATCC 27853 at 0.5 mg/ml after 24 hrs by well plate method; type: functional; settings: ATCC 27853, 24 h, read-out: DIZ
[2] = test system: Candida albicans; assay: Antifungal activity against Candida albicans MTCC 2827 at 1 mg/ml after 72 hrs by well plate method; type: functional; settings: MTCC 2827, 72 h, read-out: DIZ
[3] = test system: Aspergillus flavus; assay: Antifungal activity against Aspergillus flavus MTCC 3306 at 0.5 mg/ml after 72 hrs by well plate method; type: functional; settings: MTCC 3306, 72 h, read-out: DIZ
[4] = Antifungal activity against Chrysosporium keratinophilum MTCC 3017 at 1 mg/ml after 72 hrs by well plate method; type: functional
[5] = test system: Candida albicans; assay: Antifungal activity against Candida albicans MTCC 2827 at 0.5 mg/ml after 72 hrs by well plate method; type: functional; settings: MTCC 2827, 72 h, read-out: DIZ
[6] = test system: Escherichia coli; assay: Antibacterial activity Escherichia coli ATCC 25922 at 1 mg/ml after 24 hrs by well plate method; type: functional; settings: ATCC 25922, 24 h, read-out: DIZ
[7] = test system: Staphylococcus aureus; assay: Antibacterial activity Staphylococcus aureus ATCC 25923 at 1 mg/ml after 24 hrs by well plate method; type: functional; settings: ATCC 25923, 24 h, read-out: DIZ
[8] = Antifungal activity against Chrysosporium keratinophilum MTCC 3017 at 0.5 mg/ml after 72 hrs by well plate method; type: functional
[9] = test system: Escherichia coli; assay: Antibacterial activity Escherichia coli ATCC 25922 at 0.5 mg/ml after 24 hrs by well plate method; type: functional; settings: ATCC 25922, 24 h, read-out: DIZ
[10] = test system: Pseudomonas aeruginosa; assay: Antibacterial activity Pseudomonas aeruginosa ATCC 27853 at 1 mg/ml after 24 hrs by well plate method; type: functional; settings: ATCC 27853, 24 h, read-out: DIZ
[11] = test system: Staphylococcus aureus; assay: Antibacterial activity Staphylococcus aureus ATCC 25923 at 0.5 mg/ml after 24 hrs by well plate method; type: functional; settings: ATCC 25923, 24 h, read-out: DIZ
[12] = test system: Liver microsomes; assay: Antioxidant activity in Wistar rat liver microsomes assessed as inhibition of microsomal lipid peroxidation after 15 mins by MDA-TBA assay; type: functional, Microsome
[13] = test system: Radical scavenging activity; assay: Antioxidant activity assessed as DPPH radical scavenging activity after 20 mins by UV-Vis spectrophotometric analysis; type: functional
[14] = test system: Aspergillus flavus; assay: Antifungal activity against Aspergillus flavus MTCC 3306 at 1 mg/ml after 72 hrs by well plate method; type: functional; settings: MTCC 3306, 72 h, read-out: DIZ

Row | Structure (SMILES) | IC50 [12] | IC50 [13] | zone of inhibition at 500 µg/mL [1] | zone of inhibition at 1000 µg/mL [2] | zone of inhibition at 500 µg/mL [3] | inhibition zone (IZ) [4] | zone of inhibition at 500 µg/mL [5] | zone of inhibition at 1000 µg/mL [6] | zone of inhibition at 1000 µg/mL [7] | inhibition zone (IZ) [8] | zone of inhibition at 500 µg/mL [9] | zone of inhibition at 1000 µg/mL [10] | zone of inhibition at 500 µg/mL [11] | zone of inhibition at 1000 µg/mL [14]
1 | COc1cc(C2CC(c3cc4ccccc4o3)=NN2C(=O)Nc2ccccc2O)ccc1O (configuration not stated) | 22 uM/ml | 19 uM/ml | 2 mm | 4 mm | 1 mm | 4 mm | 3 mm | 3 mm | 2 mm | 2 mm | 1 mm | 4 mm | 1 mm | 2 mm
2 | COc1cc(C2CC(c3cc4ccccc4o3)=NN2C(=O)Nc2ccc(F)cc2)ccc1O (configuration not stated) | 125 uM/ml | 110 uM/ml | 16 mm | 24 mm | 9 mm | 15 mm | 21 mm | 18 mm | 16 mm | 11 mm | 12 mm | 19 mm | 14 mm | 11 mm
3 | COc1cc(C2CC(c3cc4ccccc4o3)=NN2C(=O)Cl)ccc1O (configuration not stated) | 147 uM/ml | 135 uM/ml | 2 mm | 4 mm | 1 mm | 3 mm | 3 mm | 3 mm | 2 mm | 2 mm | 2 mm | 2 mm | 1 mm | 2 mm
4 | COc1cc(C2CC(c3cc4ccccc4o3)=NN2C(=O)Nc2ccc(O)c(O)c2)ccc1O (configuration not stated) | 11 uM/ml | 9.5 uM/ml | 3 mm | 2 mm | 2 mm | 2 mm | 1 mm | 2 mm | 2 mm | 1 mm | 1 mm | 5 mm | 1 mm | 3 mm
5 | COc1cc(C2CC(c3cc4ccccc4o3)=NN2C(=O)Nc2ccc([N+](=O)[O-])cc2)ccc1O (configuration not stated) | 113 uM/ml | 103 uM/ml | 7 mm | 5 mm | 3 mm | 4 mm | 4 mm | 15 mm | 8 mm | 3 mm | 9 mm | 9 mm | 6 mm | 5 mm
6 | COc1ccc(NC(=O)N2N=C(c3cc4ccccc4o3)CC2c2ccc(O)c(OC)c2)cc1 (configuration not stated) | 29 uM/ml | 25 uM/ml | 5 mm | 5 mm | 3 mm | 4 mm | 3 mm | 13 mm | 2 mm | 2 mm | 1 mm | 7 mm | 1 mm | 4 mm

Now from value to compound, other results behind:

Row | IC50 [12] | IC50 [13] | Structure (SMILES) | zone of inhibition at 500 µg/mL [1] | zone of inhibition at 1000 µg/mL [2] | zone of inhibition at 500 µg/mL [3] | inhibition zone (IZ) [4] | zone of inhibition at 500 µg/mL [5] | zone of inhibition at 1000 µg/mL [6] | zone of inhibition at 1000 µg/mL [7] | inhibition zone (IZ) [8] | zone of inhibition at 500 µg/mL [9] | zone of inhibition at 1000 µg/mL [10] | zone of inhibition at 500 µg/mL [11] | zone of inhibition at 1000 µg/mL [14]
7 | 44 uM/ml | 37 uM/ml | COc1cc(C2CC(c3cc4ccccc4o3)=NN2C(=O)Nc2ccc(C)cc2)ccc1O (configuration not stated) | 3 mm | 3 mm | 2 mm | 3 mm | 1 mm | 5 mm | 4 mm | 1 mm | 4 mm | 4 mm | 3 mm | 3 mm
8 | 121 uM/ml | 107 uM/ml | COc1cc(C2CC(c3cc4ccccc4o3)=NN2C(=O)Nc2ccc(Cl)cc2)ccc1O (configuration not stated) | 15 mm | 20 mm | 7 mm | 9 mm | 17 mm | 17 mm | 6 mm | 7 mm | 11 mm | 18 mm | 4 mm | 10 mm
